The values that follow come from article PMC10275055, “Preventing recurrence in Sonic Hedgehog Subgroup Medulloblastoma using the OLIG2 inhibitor CT-179” (Research Square, 2023).

Assay [1] deals with Daoy cells. Nature of the assay: Apoptosis and cell cycle analysis in Daoy cells. The class given is cell-based, human. As to conditions: 1 μM. The method, then:
Cell proliferation was determined by a CellTiter 96® Non-Radioactive Cell Proliferation Assay (Promega) kit. Absorbance at 490 nm was measured on a Biotek PowerWave (Biotek, USA) plate scanner to obtain raw data. Average absorbance from triplicate wells were plotted against concentration using GraphPad Prism software v.7.0 (GraphPad software). At the indicated time points, cells were stained using FITC-conjugated Annexin V and Annexin V binding buffer (BD Pharmingen™) according to the manufacturer’s instructions. Annexin V or propidium iodide (PI)-positive cells were analyzed using a Fortessa 5 Flow Cytometer (Becton Dickinson) and data was analyzed using FlowJo® software (Tree Star).
Cell cycle analysis was performed as descried previously. Cells were fixed with 70% ice-cold ethanol and subsequently stained with PI and analyzed using a Fortessa 5 Flow Cytometer (Becton Dickinson) and data was analyzed using FlowJo® software (Tree Star).

Assay [2] concerns the target T1, OLIG2 dimerization (Homo sapiens, UniProt Q13516).
T1 construct: expressed in transfected cells; host or cells: HEK293
T1 sequence (Q13516 1-323): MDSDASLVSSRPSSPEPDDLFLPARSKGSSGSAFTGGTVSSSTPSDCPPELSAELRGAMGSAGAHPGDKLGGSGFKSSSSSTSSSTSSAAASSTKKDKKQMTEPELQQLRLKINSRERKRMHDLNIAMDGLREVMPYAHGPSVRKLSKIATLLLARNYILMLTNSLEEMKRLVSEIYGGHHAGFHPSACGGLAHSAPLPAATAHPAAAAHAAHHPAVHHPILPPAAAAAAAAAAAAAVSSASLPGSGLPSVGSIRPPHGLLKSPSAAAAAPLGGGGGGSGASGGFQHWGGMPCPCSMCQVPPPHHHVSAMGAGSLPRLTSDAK
Put plainly: FCCS of OLIG2 dimerization in live HEK293 cells co-transfected with OLIG2-eGFP and OLIG2-Tomato. The class given is cell-based. The method, then:
HEK293 cells were maintained in a humidified atmosphere containing 5 % CO2 at 37 °C in Dulbecco’s Modified Eagle Medium supplemented with 10 % fetal bovine serum (FBS) and antibiotics (100 U/mL penicillin and 100 μg/mL streptomycin). One day before the transfection, HEK293 cells were split into Lab-Tek 8-well chambered Coverglass (Thermo Fisher Scientific). HEK293 cells on and 8-well chamber were transfected with plasmid DNA (OLIG2-eGFP and OLIG2-Tomato; or with eGFP and Tomato as negative control) using Lipofectamine 2000 (Thermo Fisher Scientific). After the transfection, HEK293 cells were cultured for 24 h at 37 °C. […]
CLSM imaging and FCCS measurements were performed using an LSM880 microscope system (Carl Zeiss, Germany) equipped with an Ar-ion laser with three lines: 458 nm, 488 nm and 514 nm, 543 nm He-Ne laser, and a water immersion objective lens (C-Apochromat, 40×, 1.2 N.A., Corr, Carl Zeiss), and a gallium arsenide phosphide (GaAsP) spectral array detector and photomultiplier tube (PMT) spectral array detector. eGFP and Tomato were excited using 488 nm laser and 543 nm laser, respectively. […] The emitted fluorescence was split by a diffraction grating and detected using a GaAsP detector (wavelength range 496–534 nm for eGFP) and a PMT detector (wavelength range 580–758 nm for Tomato). […]
Data acquired by FCCS was analyzed using the ZEN software (Carl Zeiss). […]

Regarding `Cc1cc(NCCCN(C)C)nc(NC(=O)Nc2ccc(Cl)c(Cl)c2)n1` [CT-179], the “apoptosis (cleaved CASPASE-3, Annexin V)” value in assay [1] is recorded as “increased apoptosis”. In assay [1] (24 hours, single therapy), the cell cycle effect result is “G2/M phase arrest”. Further, in assay [2] (1 μM for one hour), the “relative cross-correlation amplitude (RCA)” value was “significantly decreased”. The “allosteric factor, nallo” value in assay [2] (best fit of RCA dose-response curve) is on record as −0.66.
